Legend:
[1] = xn = mol fraction of the nth substance listed; conditions: 101 kPa, Liquid; for viscosity: Capillary tube (Ostwald / Ubbelohde) method; for mass density: Vibrating tube method
[2] = refractive index (Na D-line) (dimensionless); xn = mol fraction of the nth substance listed; conditions: 101 kPa, Liquid, Standard Abbe refractometry

ClC(Cl)Cl [trichloromethane] + CC(C)=O
Conditions	mass density, [1] [kg/m3]	refractive index, [2]	viscosity, [1] [mPa·s]
298.15 K, x2 = 0	1478.75	1.4422	0.5916
298.15 K, x2 = 0.0997	1419.64	1.4342	0.589
298.15 K, x2 = 0.1996	1357.58	1.4262	0.5814
298.15 K, x2 = 0.2993	1293.35	1.4192	0.5684
298.15 K, x2 = 0.3999	1226.35	1.4112	0.5412
298.15 K, x2 = 0.4979	1159.27	1.4029	0.5126
298.15 K, x2 = 0.599	1088.31	1.3941	0.4741
298.15 K, x2 = 0.6993	1016.22	1.3851	0.435
298.15 K, x2 = 0.8008	941.27	1.377	0.3975
298.15 K, x2 = 0.9006	864.78	1.3676	0.3443
303.15 K, x2 = 0	1469.16	1.4397	0.558
303.15 K, x2 = 0.0997	1409.35	1.4309	0.5571
303.15 K, x2 = 0.1996	1347.6	1.4252	0.5571
303.15 K, x2 = 0.2993	1284.12	1.418	0.5373
303.15 K, x2 = 0.3999	1217.87	1.4105	0.5156
303.15 K, x2 = 0.4979	1151.19	1.4019	0.4913
303.15 K, x2 = 0.599	1080.44	1.3924	0.4551
303.15 K, x2 = 0.6993	1008.68	1.3841	0.4188
303.15 K, x2 = 0.8008	934.43	1.3744	0.3802
303.15 K, x2 = 0.9006	858.83	1.3656	0.338
308.15 K, x2 = 0	1460.01	1.4356	0.5333
308.15 K, x2 = 0.0997	1402.33	1.4281	0.5329
308.15 K, x2 = 0.1996	1341.01	1.4215	0.5303
308.15 K, x2 = 0.2993	1276.96	1.4141	0.5185
308.15 K, x2 = 0.3999	1210.11	1.4055	0.4968
308.15 K, x2 = 0.4979	1143.34	1.3968	0.4693
308.15 K, x2 = 0.599	1073.05	1.3875	0.4396
308.15 K, x2 = 0.6993	1001.9	1.3791	0.4028
308.15 K, x2 = 0.8008	927.99	1.3702	0.3593
308.15 K, x2 = 0.9006	852.47	1.3601	0.3254
313.15 K, x2 = 0	1450.39	1.4338	0.5072
313.15 K, x2 = 0.0997	1393.77	1.4276	0.5067
313.15 K, x2 = 0.1996	1332.05	1.4202	0.4994
313.15 K, x2 = 0.2993	1268.04	1.4128	0.4876
313.15 K, x2 = 0.3999	1201.58	1.4048	0.468
313.15 K, x2 = 0.4979	1135.08	1.3965	0.4429
313.15 K, x2 = 0.599	1064.85	1.3873	0.4149
313.15 K, x2 = 0.6993	993.86	1.3787	0.383
313.15 K, x2 = 0.8008	920.68	1.3682	0.3453
313.15 K, x2 = 0.9006	846.27	1.3599	0.3056
318.15 K, x2 = 0	1440.03	1.4297	0.4849
318.15 K, x2 = 0.0997	1383.86	1.4244	0.4834
318.15 K, x2 = 0.1996	1322.43	1.4175	0.4798
318.15 K, x2 = 0.2993	1258.8	1.4094	0.4684
318.15 K, x2 = 0.3999	1192.83	1.4008	0.4483
318.15 K, x2 = 0.4979	1126.82	1.3929	0.4207
318.15 K, x2 = 0.599	1057.03	1.3839	0.389
318.15 K, x2 = 0.6993	986.42	1.3754	0.3583
318.15 K, x2 = 0.8008	913.61	1.365	0.3261
318.15 K, x2 = 0.9006	839.75	1.3548	0.2862

ClC(Cl)Cl [trichloromethane] + CO
Conditions	mass density, [1] [kg/m3]	refractive index, [2]	viscosity, [1] [mPa·s]
298.15 K, x2 = 0	1478.75	1.4422	0.5916
298.15 K, x2 = 0.0999	1443.84	1.4379	0.6213
298.15 K, x2 = 0.2012	1403.84	1.4312	0.6437
298.15 K, x2 = 0.3015	1358.87	1.4217	0.6585
298.15 K, x2 = 0.3991	1309.46	1.4115	0.6642
298.15 K, x2 = 0.502	1250.29	1.4018	0.6635
298.15 K, x2 = 0.5998	1186.04	1.3903	0.6552
298.15 K, x2 = 0.7012	1108.93	1.3789	0.6385
298.15 K, x2 = 0.7998	1020.91	1.3649	0.6182
298.15 K, x2 = 0.9001	914.54	1.3485	0.5812
303.15 K, x2 = 0	1469.16	1.4397	0.558
303.15 K, x2 = 0.0999	1434	1.4327	0.5797
303.15 K, x2 = 0.2012	1394.48	1.4257	0.5937
303.15 K, x2 = 0.3015	1350.17	1.4171	0.6053
303.15 K, x2 = 0.3991	1301.28	1.4084	0.6038
303.15 K, x2 = 0.502	1242.63	1.3979	0.6028
303.15 K, x2 = 0.5998	1178.79	1.3881	0.5919
303.15 K, x2 = 0.7012	1102.19	1.377	0.5796
303.15 K, x2 = 0.7998	1014.72	1.3633	0.5571
303.15 K, x2 = 0.9001	909	1.3467	0.533
308.15 K, x2 = 0	1460.01	1.4356	0.5333
308.15 K, x2 = 0.0999	1424.97	1.4289	0.5525
308.15 K, x2 = 0.2012	1385.67	1.4212	0.5656
308.15 K, x2 = 0.3015	1341.86	1.4116	0.5743
308.15 K, x2 = 0.3991	1293.54	1.4031	0.5766
308.15 K, x2 = 0.502	1235.37	1.3953	0.5716
308.15 K, x2 = 0.5998	1171.85	1.3856	0.5627
308.15 K, x2 = 0.7012	1095.59	1.3729	0.5487
308.15 K, x2 = 0.7998	1008.7	–	0.5267
308.15 K, x2 = 0.9001	903.73	1.3443	0.5044
313.15 K, x2 = 0	1450.39	1.4338	0.5072
313.15 K, x2 = 0.0999	1415.61	1.427	0.5241
313.15 K, x2 = 0.2012	1376.61	1.4211	0.5355
313.15 K, x2 = 0.3015	1333.14	1.4127	0.5429
313.15 K, x2 = 0.3991	1285.19	1.4049	0.5434
313.15 K, x2 = 0.502	1227.45	1.3943	0.5403
313.15 K, x2 = 0.5998	1164.4	1.3839	0.5264
313.15 K, x2 = 0.7012	1088.7	1.3722	0.5134
313.15 K, x2 = 0.7998	1002.44	1.3592	0.4924
313.15 K, x2 = 0.9001	898.23	–	0.4713
318.15 K, x2 = 0	1440.03	1.4297	0.4849
318.15 K, x2 = 0.0999	1405.51	1.4201	0.4991
318.15 K, x2 = 0.2012	1366.88	1.4174	0.5108
318.15 K, x2 = 0.3015	1323.78	1.4093	0.5144
318.15 K, x2 = 0.3991	1276.2	1.4023	0.5142
318.15 K, x2 = 0.502	1218.91	1.3927	0.5108
318.15 K, x2 = 0.5998	1156.37	1.3817	0.4976
318.15 K, x2 = 0.7012	1081.29	1.3719	0.483
318.15 K, x2 = 0.7998	995.73	1.3576	0.4655
318.15 K, x2 = 0.9001	892.36	1.3406	0.4426
